Structures are written as SMILES. Entries after “also recorded” stand apart in the source; their conditions may differ. Non-standard residues stand in square brackets, D forms with d. Residues, ends and D or L forms follow the SMILES beside them.

The record followed here is patent US11510964B2, “Macrocyclic peptides to decrease c-Myc protein levels and reduce cancer cell growth” (University of Kansas, priority 2017, dated 2022).

The subject of one series is c-Myc mRNA in PC-3 cells. The series can be described thus: c-Myc mRNA measurement (real-time PCR). It is filed as cell-based, human. Particulars: 10 μM, 0 h to 48 h. The method, then: PC-3 cells were grown in 10 cm petri dishes to 75% confluency, and then treated with [D-Trp] CJ-15,208 (10 μM) for 2-48 h. Cells were harvested and the total RNA from each sample was isolated using the Aurum Total RNA Mini Kit #732-6820 (Bio-Rad) per the manufacturer's instructions. The RNA concentration in the sample was determined using a NanoDrop ND-1000 spectrophotometer. Total RNA (1 μg) from each sample was used to synthesize cDNA using the iScript cDNA Synthesis Kit (BioRad). Real-time PCR was performed with a Power-SYBR Green PCR Master Mix (Applied Biosystems) using the following thermal cycles: initial activation at 95° C. for 5 min, followed by 40 cycles of 95° C. for 15 s and 60° C. for 1 min. The fluorescence was determined at the melting temperature of the product for 20 s (ABI PRISM 7000 Sequence Detection System, Applied Biosystems). The following primer sets were used to amplify regions of c-Myc and GAPDH (internal control): c-Myc (forward: 5′-CTG GTG CTC CAT GAG GAG-3′ (SEQ ID NO: 1), reverse: 5′-AGG TGA TCC AGA CTC TGA C-3′ SEQ ID NO: 2)) and GAPDH (forward: 5′-CCA TGG AGA AGG CTG GGG-3′ (SEQ ID NO: 3), reverse: 5′-CAAATGTGTCATGGATGACC-3′ SEQ ID NO: 4)). The levels of c-Myc mRNA were normalized to the GAPDH mRNA levels.^37

For another series, the system named is BPH-1 cells. The series is described as follows: Cell viability assay (Trypan Blue). It is filed as cell-based. The following applies: BPH-1 normal prostate cells, 1-40 μM, 48 h. Here is the method: The viability of prostate cancer cells was determined using Trypan Blue (Sigma) per the manufacturer's instructions. Cells were grown in 6 well plates to a density of 1×10^5 cells/well to 75% confluency and treated with compound in 0.5% DMSO at the indicated concentrations for 24-72 h, with 0.5% DMSO as the vehicle control. After treatment, the cell media from each well was collected. The cells were washed with phosphate buffer saline (PBS), trypsinized, and collected. All of the cells, combined media, and washes were centrifuged at 250×g for 5 min. The supernatant was discarded, and the cell pellet was resuspended in 500 μL PBS. Trypan blue (10 μL) was added to 100 μL of resuspended cells, and the solution incubated for 10 min. The cell number in 10 μL was then counted using a hematocytometer. Viable cells (not stained) were distinguished from dead cells (colored blue) and the % viable cells calculated as follows: [(number of white cells)/(number of total cells (white+blue))]*100 and compared with untreated cells.^16

For another series, the system named is HEK cells. The series can be described thus: Cell proliferation assay (WST-1). It is filed as cell-based, human. The method, then: Human prostate cancer PC-3 cells were cultured and maintained in EMEM (ATCC), non-prostate HEK (human embryonic kidney) cells were cultured in DMEM, human prostate cancer DU145, LNCaP, 22Rv1 cells were cultured in RPMI 1640 (ATCC), and normal BPH-1 prostate cells and prostate cancer C4-2 cell line were cultured in RPMI 1640 (ATCC), all containing 10% fetal bovine serum (Atlanta Biologicals) and 1% penicillin/streptomycin (Invitrogen). Cells were grown at 37° C. in humidified air with 5% CO2 and passaged every fourth to fifth day following trypsinization with trypsin/EDTA (Invitrogen).^16
PC-3, LNCaP, DU 145, 22Rv1, C4-2, BPH-1, and HEK cells were grown to a density of 2000 cells/well in 96 well plates and treated with [D-Trp]CJ-15,208 or other peptides for 24-72 h in duplicate. Media containing [D-Trp]CJ-15,208 was changed every 24 h. The proliferation of treated cells was determined using the cell proliferation reagent WST-1 (Roche) per the manufacturer's instructions and compared to […] control cells in 1% DMSO in media. After treatment with compound 10 μL of the reagent was added to the well in 100 μL culture media, and the cells incubated at 37° C. for 30 min. The absorbance of the media in each well was measured at […] using a plate reader (BioTek). The percentage cell proliferation was normalized to vehicle treated control cells calculated as: (mean absorbance of sample/mean absorbance of control cells)×100.^38
Each experiment was performed in triplicate unless otherwise stated in the figure legend. GraphPad Prism 5 was used to determine IC50 values. Data represent the mean value+/−SEM. Compound vs. vehicle treated cells in the cell cycle phase and apoptosis experiments (FIGS. 5-8) were compared using the student's t-test, with a two-tailed, unpaired method, using the Prism software. The effects of compound vs. vehicle treatment on protein levels (FIG. 10) were evaluated by one-way ANOVA with Dunnett's test for multiple comparisons.
In general terms: Formazan colour is commonly taken as a measure of viable cells.

The test system of series [1] is c-Myc protein levels in PC-3 cells. The series can be described thus: Western blot analysis of cellular c-Myc protein levels. In kind it is cell-based, human. The method, then:
Cells were seeded in 6 well plates at a density of 1×10^5 cells/well and grown to 75% confluence. Cells were treated with [D-Trp]CJ-15,208 at the indicated concentrations. Cells were then harvested as described above, and the cell pellets lysed in RIPA buffer consisting of 10 mM Tris HCl, pH 8.0, 150 mM NaCl, 1 mM EDTA, 1% Triton-X-100, 0.1% SDS, 1% sodium deoxycholate, and a protease inhibitor cocktail #P8340 (Sigma). Cell lysates were centrifuged at 13×1000 rpm for 15 min and the supernatants collected. The total protein concentration was measured in cell lysates using the standard Bradford assay. SDS gel electrophoresis was performed using 4-20% polyacrylamide gel (BioRad). Western blot analysis was performed using the following antibodies: i) c-Myc #5605 (rabbit monoclonal, 1:2000 dilution, (Cell Signaling Technologies)); actin #A2228 (mouse monoclonal, 1:5000 dilution (Sigma)), PP2A #610555 (mouse monoclonal 1:5000 dilution, BD Biosciences), p-PP2A #1155-1 (rabbit polyclonal, 1:5000 dilution (Epitomics)), Erk #9107 (mouse monoclonal, 1:2000 dilution (Cell Signaling Technologies) and p-Erk #4376 (rabbit monoclonal, 1:2000 (Cell Signaling Technologies)); Akt #2920 (mouse monoclonal, 1:2000 dilution (Cell Signaling Technologies)), p-Akt #4056 (rabbit monoclonal, 1:2000 (Cell Signaling Technologies)). The secondary antibodies, goat-anti-mouse #116-035-003 and goat-anti-rabbit #111-035-003, were obtained from Jackson ImmunoResearch Laboratory. Signal densities of the protein bands were determined using ImageJ software (NIH) and normalized to the internal loading control (actin).
Background: A western blot detects proteins with antibodies after separation by electrophoresis.

As to `O=C1N[C@H](Cc2c[nH]c3ccccc23)C(=O)N[C@@H](Cc2ccccc2)C(=O)N2CCC[C@@H]2C(=O)N[C@H]1Cc1ccccc1` [[D-Trp]CJ-15,208, cyclo[Phe-D-Pro-Phe-D-Trp]] (cyclo(F[dP]F[dW])), in the series on c-Myc mRNA in PC-3 cells, the “c-Myc mRNA expression” value is on record as “did not affect mRNA expression; also recorded: did not alter cmyc mRNA levels”. In the series with BPH-1 cells, the “cell death (Trypan blue)” value is “no evidence of cell death”. Moreover, the “IC50, cell growth” value in the series with HEK cells (48 h) and with HEK cells (72 h) was “No effect” each time. Besides, the “effect on cell proliferation / cytotoxicity” value with HEK cells (time not stated) is “No cytotoxicity was observed; also recorded: did not prevent cell proliferation”. The “decrease of cellular c-Myc protein levels” value in series [1] (50 μM (FIG. 1E lanes 4 and 5)) amounted to 5 fold. In addition, the “reduction of c-Myc protein levels” value in series [1] (PC-3 cells, 10 μM, 48 h) is “approximately 50%”.
